Test results from patent US7709471B2, “Compounds” (AstraZeneca AB, priority 2006, dated 2010).

system: human colon tumour cell line HT29; test: Cellular Assay (phosphohistone H3 Ser10 mitotic marker, HT29); type: cell-based; details: HT-29, 24 h, HT29 cells, read-out: IC50 (cellular assay, phosphohistone H3)
Description: Chromosome condensation in mitosis is accompanied by phosphorylation of histone H3 on serine 10.
After 24 hours, cells were fixed in 3.7% (v/v) formaldehyde then permeabilised and blocked for 10 minutes in 100 μl 0.5% (v/v) Triton X-100, 1% (w/v) bovine serum albumin (BSA) in phosphate buffered saline (PBS). […] The raw assay data were analysed by non-linear regression analysis and used to determine an IC50 value for each compound.

`CCN1CCC(NC(=O)c2cc(F)c(Nc3ncc4c(n3)N(C3CCCCC3)CCC(=O)N4C)cc2F)CC1` [Example 415, 4-[(2-cyclohexyl-6-methyl-5-oxo-2,6,9,11-tetrazabicyclo[5.4.0]undeca-7,9,11-trien-10-yl)amino]-N-(1-ethyl-4-piperidyl)-2,5-difluoro-benzamide] and `CCN1CCC(NC(=O)c2cc(OC)c(Nc3ncc4c(n3)N(C3CCCCC3)CCC(=O)N4C)cc2F)CC1` [Example 422, 4-[(2-cyclohexyl-6-methyl-5-oxo-2,6,9,11-tetrazabicyclo[5.4.0]undeca-7,9,11-trien-10-yl)amino]-N-(1-ethyl-4-piperidyl)-2-fluoro-5-methoxy-benzamide] cannot be ordered by IC50: less than 300 nM for the first, less than 300 nM for the second.

`CN1C(=O)CCN(C2CCCCC2)c2nc(Nc3cc(F)c(C(=O)NCCN4CCCC4)cc3F)ncc21` [Example 416, 4-[(2-cyclohexyl-6-methyl-5-oxo-2,6,9,11-tetrazabicyclo[5.4.0]undeca-7,9,11-trien-10-yl)amino]-2,5-difluoro-N-(2-pyrrolidin-1-ylethyl)benzamide] and `COc1cc(C(=O)NCCN2CCCC2)c(F)cc1Nc1ncc2c(n1)N(C1CCCCC1)CCC(=O)N2C` [Example 425, 4-[(2-cyclohexyl-6-methyl-5-oxo-2,6,9,11-tetrazabicyclo[5.4.0]undeca-7,9,11-trien-10-yl)amino]-2-fluoro-5-methoxy-N-(2-pyrrolidin-1-ylethyl)benzamide] cannot be ordered by IC50: less than 1000 nM for the first, less than 300 nM for the second.

`CN1C(=O)CCN(C2CCCCC2)c2nc(Nc3ccc(C(=O)NC4C[C@H]5CCC[C@@H](C4)N5C)cc3F)ncc21` (stereo partly drawn) [Example 417, 4-[(2-cyclohexyl-6-methyl-5-oxo-2,6,9,11-tetrazabicyclo[5.4.0]undeca-7,9,11-trien-10-yl)amino]-3-fluoro-N-[(1S,5R)-9-methyl-9-azabicyclo[3.3.1]non-7-yl]benzamide] and `COc1cc(C(=O)NC2C[C@H]3CCC[C@@H](C2)N3C)ccc1Nc1ncc2c(n1)N(C1CCCCC1)CCC(=O)N2C` (stereo partly drawn) [Example 418, 4-[(2-cyclohexyl-6-methyl-5-oxo-2,6,9,11-tetrazabicyclo[5.4.0]undeca-7,9,11-trien-10-yl)amino]-3-methoxy-N-[(1R,5S)-9-methyl-9-azabicyclo[3.3.1]non-7-yl]benzamide] cannot be ordered by IC50: less than 300 nM for the first, less than 300 nM for the second.

`COc1cc(C(=O)NCC2(CN3CCCC3)CC2)c(F)cc1Nc1ncc2c(n1)N(C1CCCCC1)CCC(=O)N2C` [Example 419, 4-[(2-cyclohexyl-6-methyl-5-oxo-2,6,9,11-tetrazabicyclo[5.4.0]undeca-7,9,11-trien-10-yl)amino]-2-fluoro-5-methoxy-N-[[1-(pyrrolidin-1-ylmethyl)cyclopropyl]methyl]benzamide] and `COc1cc(C(=O)N[C@@H]2CCN(C)C2)c(F)cc1Nc1ncc2c(n1)N(C1CCCCC1)CCC(=O)N2C` [Example 420, 4-[(2-cyclohexyl-6-methyl-5-oxo-2,6,9,11-tetrazabicyclo[5.4.0]undeca-7,9,11-trien-10-yl)amino]-2-fluoro-5-methoxy-N-[(3R)-1-methylpyrrolidin-3-yl]benzamide] cannot be ordered by IC50: less than 1000 nM for the first, less than 300 nM for the second.

`COc1cc(C(=O)N[C@@H]2CCN(C)C2)ccc1Nc1ncc2c(n1)N(C1CCCCC1)CCC(=O)N2C` [Example 421, 4-[(2-cyclohexyl-6-methyl-5-oxo-2,6,9,11-tetrazabicyclo[5.4.0]undeca-7,9,11-trien-10-yl)amino]-3-methoxy-N-[(3R)-1-methylpyrrolidin-3-yl]benzamide] and `CCN1CCC(NC(=O)c2ccc(Nc3ncc4c(n3)N(C3CCCCC3)CCC(=O)N4C)c(OC)c2)CC1` [Example 423, 4-[(2-cyclohexyl-6-methyl-5-oxo-2,6,9,11-tetrazabicyclo[5.4.0]undeca-7,9,11-trien-10-yl)amino]-N-(1-ethyl-4-piperidyl)-3-methoxy-benzamide] cannot be ordered by IC50: less than 300 nM for the first, less than 300 nM for the second.

`COc1cc(C(=O)NCCCN(C)C)ccc1Nc1ncc2c(n1)N(C1CCCCC1)CCC(=O)N2C` [Example 424, 4-[(2-cyclohexyl-6-methyl-5-oxo-2,6,9,11-tetrazabicyclo[5.4.0]undeca-7,9,11-trien-10-yl)amino]-N-(3-dimethylaminopropyl)-3-methoxy-benzamide] was tested, and the IC50 was less than 300 nM.
